Data from patent US9408793B2, “Selective compounds inhibiting CYP26A1 useful in cosmetic and pharmaceutical compositions” (GALDERMA RESEARCH & DEVELOPMENT, priority 2012, dated 2016).

Legend:
human CYP26A1 enzyme = molecular target: T1, human CYP26A1 enzyme (Homo sapiens, UniProt O43174); assay: Cell test, HeLa cells overexpressing human CYP26A1, metabolism of radiolabelled retinoic acid (3H-RA); assay type: cell-based; conditions: for AC50: HeLa cells overexpressing human CYP26A1, 3 h incubation with 3H-RA, mean of two experiments; for CYP26B1/CYP26A1 (selectivity ratio of mean AC50): ratio of AC50 CYP26B1 to AC50 CYP26A1; for Isoform activity in words: CYP26A1 versus CYP26B1, HeLa cell test
T1 construct: expressed in transfected cells; host or cells: HeLa cells
T1 sequence (O43174 1-497): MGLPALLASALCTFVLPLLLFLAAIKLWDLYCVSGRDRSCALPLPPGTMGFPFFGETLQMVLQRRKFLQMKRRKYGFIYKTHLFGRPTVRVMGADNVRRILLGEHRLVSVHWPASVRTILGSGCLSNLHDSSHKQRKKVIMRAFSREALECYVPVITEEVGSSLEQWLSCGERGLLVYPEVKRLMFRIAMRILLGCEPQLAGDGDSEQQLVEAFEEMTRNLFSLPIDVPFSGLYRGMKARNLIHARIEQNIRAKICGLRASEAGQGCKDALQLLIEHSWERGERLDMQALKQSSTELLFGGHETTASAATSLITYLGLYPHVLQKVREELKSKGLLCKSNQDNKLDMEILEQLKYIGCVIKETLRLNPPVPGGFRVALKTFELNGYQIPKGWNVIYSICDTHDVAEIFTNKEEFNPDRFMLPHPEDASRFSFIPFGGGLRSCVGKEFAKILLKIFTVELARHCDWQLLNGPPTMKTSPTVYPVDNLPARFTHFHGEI
Experimental: (§1) A cell test using HeLa cells overexpressing either the human CYP26A1 enzyme or the human CYP26B1 enzyme, similar to that described in White et al.(Proc Natl Acad Sci U S A. 2000 Jun 6; 97(12): 6403-8), was used. […] After the incubation time of 3 h, the reaction was stopped and an extraction phase was carried out in order to separate the aqueous and organic layers. The amount of radioactivity present in the aqueous layer was then measured as an indicator of the amount of RA which was metabolized.
(§2) A first experiment using 3 different concentrations of compounds according to the invention (0.1, 1 and 10 μM) was carried out in order to evaluate the inhibitory activity of the compounds. A second test was then carried out with a wide range of concentrations (0.01, 0.1, 0.5, 1, 5 and 10 μM).

stratum corneum = assay: Measurement of the thickness of the stratum corneum in Fuzzy rats; assay type: in vivo, rat; conditions: for Thickness of the stratum corneum (μm) / Thickness of the stratum corneum relative to the carrier: male Fuzzy rats, topical, 24 days after the treatment
Experimental: Male Fuzzy rats are separated into four batches each comprising five rats. A topical treatment is carried out on each batch by administering, respectively, a carrier acting as a control, a dose of 0.000001% of retinol, a dose of 0.1% of retinol and a dose of 0.3% of a compound according to the invention corresponding to Example 1.
24 days after the treatment, the rats are euthanized and a 10 μm section of skin is sampled in order to perform a biopsy. A 1M NaOH solution is added to each section in order to soften the stratum corneum. The photos under a microscope are taken in a time period of 2 minutes after the addition of the 1M NaOH solution.
The table below presents the results on the thickness of the stratum corneum for the various batches.

human CYP26B1 enzyme = molecular target: T2, human CYP26B1 enzyme (Homo sapiens, UniProt Q9NR63); assay: Cell test, HeLa cells overexpressing human CYP26B1, metabolism of radiolabelled retinoic acid (3H-RA); assay type: cell-based; conditions: 3 h incubation with 3H-RA, mean of two experiments
T2 construct: expressed in transfected cells; host or cells: HeLa cells
T2 sequence (Q9NR63 1-512): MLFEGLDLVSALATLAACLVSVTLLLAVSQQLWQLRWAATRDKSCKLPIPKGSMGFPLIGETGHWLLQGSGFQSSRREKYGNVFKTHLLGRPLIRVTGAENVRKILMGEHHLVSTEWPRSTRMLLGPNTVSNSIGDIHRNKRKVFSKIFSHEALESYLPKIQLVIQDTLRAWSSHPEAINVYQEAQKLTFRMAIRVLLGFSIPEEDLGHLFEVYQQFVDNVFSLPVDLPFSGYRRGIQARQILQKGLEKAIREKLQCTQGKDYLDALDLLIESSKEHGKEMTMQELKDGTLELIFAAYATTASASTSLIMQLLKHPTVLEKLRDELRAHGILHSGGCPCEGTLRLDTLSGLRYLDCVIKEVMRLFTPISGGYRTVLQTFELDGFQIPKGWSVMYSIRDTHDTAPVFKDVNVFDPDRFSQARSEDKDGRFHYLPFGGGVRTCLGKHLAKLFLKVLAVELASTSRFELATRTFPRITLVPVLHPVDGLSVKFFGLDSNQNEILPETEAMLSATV
Experimental: as §1
as §2, with “μM). The results obtained during these two tests are similar.” for “μM).”
The following table lists the mean of the AC50 values obtained over these two experiments.

CYP26B1 isoform = molecular target: T3, CYP26B1 isoform (Homo sapiens, UniProt Q9NR63); conditions: background statement; cited from earlier work
T3 sequence (Q9NR63 1-512): T2 sequence (Q9NR63 1-512)

Compound | AC50 (human CYP26A1 enzyme) [nM] | CYP26B1/CYP26A1 (selectivity ratio of mean AC50) (human CYP26A1 enzyme) | Thickness of the stratum corneum (μm) (stratum corneum; dose 0.3%) | Thickness of the stratum corneum relative to the carrier (stratum corneum; dose 0.3%) | Photographs of the keratinous layer (FIGS. 2 and 3), result in words (stratum corneum; rats treated with 0.3% versus carrier) | AC50 (human CYP26B1 enzyme) [nM] | Isoform activity in words (human CYP26A1 enzyme) | Activity on the CYP26B1 isoform (CYP26B1 isoform) | Thickness of the stratum corneum (μm) (stratum corneum; dose 0.000001%) | Thickness of the stratum corneum relative to the carrier (stratum corneum; dose 0.000001%) | Thickness of the stratum corneum (μm) (stratum corneum; dose 0.1%) | Thickness of the stratum corneum relative to the carrier (stratum corneum; dose 0.1%)
CC1(C)CCC(C)(C)c2cc(S(=O)(=O)CCc3ccc(C(=O)O)cc3)ccc21 [Compound 1, 4-[2-(5,5,8,8-Tetramethyl-5,6,7,8-tetrahydronaphthalene-2-sulphonyl)ethyl]benzoic acid] | 190 | 261.50 | 24.07 | 0.57 | decrease in the thickness of the stratum corneum | 50300 | – | – | – | – | – | –
Clc1cccc(C(c2ccc3[nH]cnc3c2)n2ccnc2)c1 (centres unmarked) [Liarozole] | – | – | – | – | – | 320 | more active on CYP26B1 than on CYP26A1 | – | – | – | – | –
CCC(CC)C(c1ccc(Nc2nc3ccccc3s2)cc1)n1cncn1 (centres unmarked) [Rambazole] | 4 | 16.82 | – | – | – | 64 | active on the inhibition of the activity of the two isoforms | about 62 nM | – | – | – | –
CC1=C(/C=C/C(C)=C/C=C/C(C)=C/CO)C(C)(C)CCC1 [Retinol] | – | – | – | – | – | – | – | – | 41.60 | 0.98 | 26.24 | 0.62
